Read-outs that look alike come from different tables or passages of the source.
Assays:
Aedes aegypti = assay: Warm Body assay, mosquito landings on the baited warm body; format: in vivo; details: for pest or weed control at 16 µg/mL / pest or weed control at 400 µg/mL / pest or weed control at 10000 µg/mL: Aedes aegypti, read-out: Percentage of repellence of mosquitoes landing on the warm body
Method: (§1) The controlling effect according to the present invention was assessed using an adapted Warm Body assay as defined in Kröber T, Kessler S, Frei J, Bourquin M, Guerin P M. 2010. J Am Mosq Control Assoc. 26:381-386. In this in-vitro assay the number of mosquito landing on a warm body, simulating an attractive host treated with the tested stimuli, was measured in order to assess the repellence effect.
The published protocol has been adapted as the switch from Anopheles gambiae to Ae. aegypti led to a decrease of mosquitoes placed in the tested cage due to the size difference (i.e. 30 mosquitoes instead of 50) and to an increase of lighting since Ae. aegypti is a diurnal mosquitoes (i.e. 150 lux instead of 4 lux).
(§2) On the sandblasted glass Petri dish covering the warm body (28.3 cm^2), 100 μL of the compounds diluted at different concentrations in ethanol was applied. The number of mosquito landing on the warm body was counted for each stimulus. Number of landings on pure ethanol (solvent) control treatment was used to normalize the data and calculate the percentage of repellence.

Anopheles gambiae = assay: as above; format: in vivo
Method: Anopheles gambiae is also a model organism as it is anthropophilic and transmits malaria.
as §1, with “effect. […]” for “effect.”
as §2

Ae. aegypti = assay: Arm-in-cage test on human volunteers; format: in vivo, Aedes aegypti
Method: (§3) The Arm in the box method was adapted from the WHO Guidelines for efficacy testing of mosquito repellents for human skin (WHO/CDS/NTD/WHOPES/2009.4) and/or based on EU biocide testing guidelines (Guidance on the Biocidal Products Regulation. Vol. II Efficacy—Assessment and Evaluation (Parts B+C), v. 4.0. December 2021). The readiness of 200 hungry female mosquitoes Ae. aegypti or 50 An. gambiae to probe is assessed by inserting the untreated arm of human volunteers into the cage (40×40×40 cm) for 30 seconds (negative control) in order to determine probing activity. Then, the product is applied onto the skin of the forearm of the human volunteer (1 mL per 600 cm^2) and after 5 minutes (Ae. aegypti) or 30 minutes (An. gambiae), this arm is inserted into the cage and exposed for 3 minutes. The assay take place in temperature (27±2° C.) and humidity (80±10% RH) regulated room on three different human volunteers.

An. gambiae = assay: Arm-in-cage test on human volunteers; format: in vivo, Anopheles gambiae; details: for repellent effect: dilution of 5%
Method: as §3

Ixodes ricinus = assay: Warm Plate Assay for ticks
[1] = more complex lactones (types A, B, C), 0.016 mg/mL
[2] = more complex lactones (types A, B, C), 0.4 mg/mL
[3] = more complex lactones (types A, B, C), 10 mg/mL

C=CCCCCC1CCC(=O)O1 (stereo not drawn) [5-hex-5-enyloxolan-2-one]
pest or weed control at 16 µg/mL (Aedes aegypti; γ-lactones, 0.016 mg/mL in ethanol): 14% | pest or weed control at 400 µg/mL (Aedes aegypti; γ-lactones, 0.4 mg/mL in ethanol): 89% | pest or weed control at 10000 µg/mL (Aedes aegypti; γ-lactones, 10 mg/mL in ethanol): 100% | Percentage of repellence of mosquitoes landing on the warm body (Anopheles gambiae; 0.08 mg/mL): 65% | Percentage of repellence of mosquitoes landing on the warm body (Anopheles gambiae; 0.178 mg/mL): 72% | Percentage of repellence of mosquitoes landing on the warm body (Anopheles gambiae; 0.267 mg/mL): 73% | Percentage of repellence of mosquitoes landing on the warm body (Anopheles gambiae; 0.598 mg/mL): 88% | Percentage of repellence of mosquitoes landing on the warm body (Anopheles gambiae; 0.89 mg/mL): 98% | Percentage of repellence of mosquitoes landing on the warm body (Anopheles gambiae; 2 mg/mL): 100% | Percentage of repellence of mosquitoes landing on the warm body (Anopheles gambiae; 4.47 mg/mL): 100% | Percentage of repellence of mosquitoes landing on the warm body (Anopheles gambiae; 10 mg/mL): 100%

CC1CCC2C(C1)OC(=O)C2C (stereo not drawn) [3,6-dimethyl-3a,4,5,6,7,7a-hexahydro-3H-1-benzofuran-2-one]
pest or weed control at 16 µg/mL (Aedes aegypti; [1]): 0% | pest or weed control at 400 µg/mL (Aedes aegypti; [2]): 90% | pest or weed control at 10000 µg/mL (Aedes aegypti; [3]): 98% | mosquitoes repelled for at least 1 h (Ae. aegypti; at 20%): > 95% | Arm-in-cage repellence, mean of three volunteers (Ae. aegypti; at 20%, 30 min): 100% ± | Arm-in-cage repellence, mean of three volunteers (Ae. aegypti; at 20%, 1 h): 99.93% ± | Arm-in-cage repellence, mean of three volunteers (Ae. aegypti; at 20%, 2 h): 92.21% ± | Arm-in-cage repellence, mean of three volunteers (Ae. aegypti; at 20%, 3 h): 86.52% ± | Arm-in-cage repellence, mean of three volunteers (Ae. aegypti; at 20%, 4 h): 66.02% ± | mosquitoes repelled for at least 1 h (An. gambiae; at 20%): > 95% | Arm-in-cage repellence, mean of three volunteers (An. gambiae; at 20%, 30 min): 100% ± | Arm-in-cage repellence, mean of three volunteers (An. gambiae; at 20%, 1 h): 93.7% ± | Arm-in-cage repellence, mean of three volunteers (An. gambiae; at 20%, 2 h): 67.05% ±

CCC=CCC1CCCC(=O)O1 (stereo not drawn) [6-pent-2-enyloxan-2-one]
repellence efficacy compared with the saturated counterpart (Aedes aegypti; Warm Body assay, paired t-test where given): significantly more efficient | repellence efficacy compared with the saturated counterpart (Anopheles gambiae; Warm Body assay, paired t-test, FIG. 4): significantly more efficient | repellence efficacy compared with saturated 6-pentyloxan-2-one (Ae. aegypti; Arm-in-Cage, 20% in ethanol, paired t-test, FIG. 5): more efficient | time during which protection is 100%, i.e. no mosquito landing (An. gambiae; 20% in ethanol): 4 h | time during which mosquito protection / repellence is >90% (An. gambiae; 20% solution in ethanol): 6 h | repellent effect (An. gambiae; 30 min after application): 100% | repellent effect (An. gambiae; 1 h after application): 99.2% | repellent effect (An. gambiae; 2 h after application): 67.2% | Arm-in-cage repellence, mean of three volunteers (An. gambiae; unsaturated δ-lactones at 20%, 30 min): 100% ± | Arm-in-cage repellence, mean of three volunteers (An. gambiae; unsaturated δ-lactones at 20%, 1 h): 100% ± | Arm-in-cage repellence, mean of three volunteers (An. gambiae; unsaturated δ-lactones at 20%, 2 h): 100% ± | Arm-in-cage repellence, mean of three volunteers (An. gambiae; unsaturated δ-lactones at 20%, 3 h): 100% ± | Arm-in-cage repellence, mean of three volunteers (An. gambiae; unsaturated δ-lactones at 20%, 4 h): 100% ± | Arm-in-cage repellence, mean of three volunteers (An. gambiae; unsaturated δ-lactones at 20%, 5 h): 99.2% ± | Arm-in-cage repellence, mean of three volunteers (An. gambiae; unsaturated δ-lactones at 20%, 6 h): 92.3% ± | Arm-in-cage repellence, mean of three volunteers (An. gambiae; unsaturated δ-lactones at 20%, 7 h): 87.8% ± | Percentage of repellence of ticks on the warm plate (Ixodes ricinus; 0.08 mg/mL): 33% | Percentage of repellence of ticks on the warm plate (Ixodes ricinus; 0.18 mg/mL): 42% | Percentage of repellence of ticks on the warm plate (Ixodes ricinus; 0.40 mg/mL): 75% | Percentage of repellence of ticks on the warm plate (Ixodes ricinus; 0.89 mg/mL): 100% | Percentage of repellence of ticks on the warm plate (Ixodes ricinus; 2 mg/mL): 100% | Percentage of repellence of ticks on the warm plate (Ixodes ricinus; 10 mg/mL): 100% | lower dose at which 100% of repellent efficacy is already reached (Ixodes ricinus; in vivo): 0.089%

C=CC1CCCC(=O)O1 (stereo not drawn) [6-ethenyloxan-2-one]
mosquitoes that still land on the warm body (Aedes aegypti; 10 mg/mL (1 mg absolute applied)): prevents any mosquito from landing | pest or weed control at 16 µg/mL (Aedes aegypti; δ-lactones, 0.016 mg/mL): 31% | pest or weed control at 400 µg/mL (Aedes aegypti; δ-lactones, 0.4 mg/mL): 30% | pest or weed control at 10000 µg/mL (Aedes aegypti; δ-lactones, 10 mg/mL): 100%

CC(C)C1OC(=O)C1(C)C (stereo not drawn) [3,3-dimethyl-4-propan-2-yloxetan-2-one]
pest or weed control at 16 µg/mL (Aedes aegypti; β- and ε-lactones, 0.016 mg/mL): 36% | pest or weed control at 400 µg/mL (Aedes aegypti; β- and ε-lactones, 0.4 mg/mL): < 40% | pest or weed control at 10000 µg/mL (Aedes aegypti; β- and ε-lactones, 10 mg/mL): 100%

CCCCCCC1=COC(=O)CC1 [5-hexyl-3,4-dihydro-2H-pyran-2-one]
pest or weed control at 16 µg/mL (Aedes aegypti; [1]): 11% | pest or weed control at 400 µg/mL (Aedes aegypti; [2]): 75% | pest or weed control at 10000 µg/mL (Aedes aegypti; [3]): 98%

Reference: patent publication US20260231939A1, “ARTHROPOD CONTROL COMPOSITIONS” (Firmenich SA, priority 2022, published 2026)
